Test [1] addresses T1, Voltage-dependent L-type calcium channel subunit alpha-1C (Cavia porcellus, UniProt O35505). Put plainly: (§1) Inhibition of L-type calcium channel measured using whole-cell patch clamp in guinea pig ventricular myocytes. It counts as functional, cell-based, Heart, Ventricular myocyte. Details: ca sol conc 1.8 mM, temp 32-33 C. (In general: Patch clamp records ionic current or voltage across a cell membrane.)

Test [2] addresses T1, Voltage-dependent L-type calcium channel subunit alpha-1C. The test is described as §1. Type of test: functional, cell-based, Heart, Ventricular myocyte. Details: ca sol conc 1.8 mM, temp room.
For test [3] the target is unchanged. The description is as §1. Type of test: functional, cell-based, Heart, Ventricular myocyte. Details: ca sol conc 1.8 mM, temp 36-37 C.
The target is the same in test [4]. Described as §1. It counts as functional, cell-based, Heart, Ventricular myocyte. Also noted: ca sol conc 1 mM, temp room.
For test [5] the target is unchanged. The test is described as §1. It counts as functional, cell-based, Heart, Ventricular myocyte. Details: ca sol conc 1 mM, temp room. This is another data set of the same source.
The target of test [6] is T2, Voltage-dependent L-type calcium channel subunit alpha-1C (Homo sapiens, UniProt Q13936). The experiment in a line: (§2) Inhibition of L-type calcium channel measured using […] kidney cells heterologically expressing alpha-1C subunit. Type of test: functional, cell-based, HEK293. Details: ca sol conc 10 mM, temp room.
The target of test [7] is T2, Voltage-dependent L-type calcium channel subunit alpha-1C. Put plainly: (§3) Inhibition of L-type calcium channel measured using 2-electrode voltage-clamp in Xenopus oocyte heterologically expressing alpha-1C subunit. Type of test: functional, cell-based. Details: ca sol conc 0 mM, temp room.
The target is the same in test [8]. The description is as §3. Also noted: ca sol conc 0 mM, temp room. It counts as functional, cell-based. This is another data set of the same source.
For test [9], the target named is T1, Voltage-dependent L-type calcium channel subunit alpha-1C. The test is described as §1.
Test [10] has as its target T3, Voltage-dependent L-type calcium channel subunit alpha-1C (Rattus norvegicus, UniProt P22002). Put plainly: (§4) Inhibition of L-type calcium channel measured using whole-cell patch clamp in rat ventricular myocytes. It counts as functional, cell-based, Heart, Ventricular myocyte. Also noted: ca sol conc 1.8 mM, temp 22-24 C.
The target in test [11] is T3, Voltage-dependent L-type calcium channel subunit alpha-1C. Described as §4. It counts as functional, cell-based, Heart, Ventricular myocyte. Details: ca sol conc 1.8 mM, temp 21-23 C.
The target of test [12] is T1, Voltage-dependent L-type calcium channel subunit alpha-1C. The description is as §1. It counts as functional, cell-based, Heart, Ventricular myocyte. Details: ca sol conc 1.8 mM, temp 36 C.
The target is the same in test [13]. The description is as §1. Type of test: functional, cell-based, Heart, Ventricular myocyte. Details: ca sol conc 1.8 mM, temp 20-22 C.
For test [14] the target is unchanged. Described as §1. Type of test: functional, cell-based, Heart, Ventricular myocyte. Also noted: ca sol conc 1.8 mM, temp 20-22 C. This is another data set of the same source.
Test [15] deals with T3, Voltage-dependent L-type calcium channel subunit alpha-1C. Described as §4. It counts as functional, cell-based, Heart, Ventricular myocyte. Details: ca sol conc 1 mM, temp 20-24 C.
Test [16] deals with T1, Voltage-dependent L-type calcium channel subunit alpha-1C. The description is as §1. It counts as functional, cell-based, Heart, Ventricular myocyte. Also noted: ca sol conc 1.8 mM, temp 20-22 C. This is another data set of the same source.
Test [17] concerns the target T2, Voltage-dependent L-type calcium channel subunit alpha-1C. Described as §2. It counts as functional, cell-based, HEK293. Details: ca sol conc 0 mM, temp room.
The target of test [18] is T1, Voltage-dependent L-type calcium channel subunit alpha-1C. The description is as §1. Type of test: functional, cell-based, Heart, Ventricular myocyte. Details: ca sol conc 1.8 mM, temp 20-25 C.
Test [19] has as its target T2, Voltage-dependent L-type calcium channel subunit alpha-1C. The test is described as §2. Details: ca sol conc 0 mM, temp 37 C. It counts as functional, cell-based, HEK293.
Test [20] shares this target. Described as §3. Type of test: functional, cell-based. Details: ca sol conc 0 mM, temp room. The source holds these as a separate data set.
The target of test [21] is T3, Voltage-dependent L-type calcium channel subunit alpha-1C. Described as §4. Type of test: functional, cell-based, Heart, Ventricular myocyte. Also noted: ca sol conc 2 mM, temp 36-37 C.
Test [22] shares this target. The test is described as §4. It counts as functional, cell-based, Heart, Ventricular myocyte. Details: ca sol conc 2 mM, temp 36-37 C. The source holds these as a separate data set.
For test [23] the target is unchanged. The test is described as §4. Details: ca sol conc 1 mM, temp 1 C. Type of test: functional, cell-based, Heart, Ventricular myocyte.
Test [24] deals with T1, Voltage-dependent L-type calcium channel subunit alpha-1C. The test is described as §1. Type of test: functional, cell-based, Heart, Ventricular myocyte. Also noted: ca sol conc None mM, temp 36 C.

This is an account of results in ChEMBL document CHEMBL3436046, “Predictive model for L-type channel inhibition: multichannel block in QT prolongation risk assessment” (J Appl Toxicol, 2012).

T2 sequence (Q13936 whole entry): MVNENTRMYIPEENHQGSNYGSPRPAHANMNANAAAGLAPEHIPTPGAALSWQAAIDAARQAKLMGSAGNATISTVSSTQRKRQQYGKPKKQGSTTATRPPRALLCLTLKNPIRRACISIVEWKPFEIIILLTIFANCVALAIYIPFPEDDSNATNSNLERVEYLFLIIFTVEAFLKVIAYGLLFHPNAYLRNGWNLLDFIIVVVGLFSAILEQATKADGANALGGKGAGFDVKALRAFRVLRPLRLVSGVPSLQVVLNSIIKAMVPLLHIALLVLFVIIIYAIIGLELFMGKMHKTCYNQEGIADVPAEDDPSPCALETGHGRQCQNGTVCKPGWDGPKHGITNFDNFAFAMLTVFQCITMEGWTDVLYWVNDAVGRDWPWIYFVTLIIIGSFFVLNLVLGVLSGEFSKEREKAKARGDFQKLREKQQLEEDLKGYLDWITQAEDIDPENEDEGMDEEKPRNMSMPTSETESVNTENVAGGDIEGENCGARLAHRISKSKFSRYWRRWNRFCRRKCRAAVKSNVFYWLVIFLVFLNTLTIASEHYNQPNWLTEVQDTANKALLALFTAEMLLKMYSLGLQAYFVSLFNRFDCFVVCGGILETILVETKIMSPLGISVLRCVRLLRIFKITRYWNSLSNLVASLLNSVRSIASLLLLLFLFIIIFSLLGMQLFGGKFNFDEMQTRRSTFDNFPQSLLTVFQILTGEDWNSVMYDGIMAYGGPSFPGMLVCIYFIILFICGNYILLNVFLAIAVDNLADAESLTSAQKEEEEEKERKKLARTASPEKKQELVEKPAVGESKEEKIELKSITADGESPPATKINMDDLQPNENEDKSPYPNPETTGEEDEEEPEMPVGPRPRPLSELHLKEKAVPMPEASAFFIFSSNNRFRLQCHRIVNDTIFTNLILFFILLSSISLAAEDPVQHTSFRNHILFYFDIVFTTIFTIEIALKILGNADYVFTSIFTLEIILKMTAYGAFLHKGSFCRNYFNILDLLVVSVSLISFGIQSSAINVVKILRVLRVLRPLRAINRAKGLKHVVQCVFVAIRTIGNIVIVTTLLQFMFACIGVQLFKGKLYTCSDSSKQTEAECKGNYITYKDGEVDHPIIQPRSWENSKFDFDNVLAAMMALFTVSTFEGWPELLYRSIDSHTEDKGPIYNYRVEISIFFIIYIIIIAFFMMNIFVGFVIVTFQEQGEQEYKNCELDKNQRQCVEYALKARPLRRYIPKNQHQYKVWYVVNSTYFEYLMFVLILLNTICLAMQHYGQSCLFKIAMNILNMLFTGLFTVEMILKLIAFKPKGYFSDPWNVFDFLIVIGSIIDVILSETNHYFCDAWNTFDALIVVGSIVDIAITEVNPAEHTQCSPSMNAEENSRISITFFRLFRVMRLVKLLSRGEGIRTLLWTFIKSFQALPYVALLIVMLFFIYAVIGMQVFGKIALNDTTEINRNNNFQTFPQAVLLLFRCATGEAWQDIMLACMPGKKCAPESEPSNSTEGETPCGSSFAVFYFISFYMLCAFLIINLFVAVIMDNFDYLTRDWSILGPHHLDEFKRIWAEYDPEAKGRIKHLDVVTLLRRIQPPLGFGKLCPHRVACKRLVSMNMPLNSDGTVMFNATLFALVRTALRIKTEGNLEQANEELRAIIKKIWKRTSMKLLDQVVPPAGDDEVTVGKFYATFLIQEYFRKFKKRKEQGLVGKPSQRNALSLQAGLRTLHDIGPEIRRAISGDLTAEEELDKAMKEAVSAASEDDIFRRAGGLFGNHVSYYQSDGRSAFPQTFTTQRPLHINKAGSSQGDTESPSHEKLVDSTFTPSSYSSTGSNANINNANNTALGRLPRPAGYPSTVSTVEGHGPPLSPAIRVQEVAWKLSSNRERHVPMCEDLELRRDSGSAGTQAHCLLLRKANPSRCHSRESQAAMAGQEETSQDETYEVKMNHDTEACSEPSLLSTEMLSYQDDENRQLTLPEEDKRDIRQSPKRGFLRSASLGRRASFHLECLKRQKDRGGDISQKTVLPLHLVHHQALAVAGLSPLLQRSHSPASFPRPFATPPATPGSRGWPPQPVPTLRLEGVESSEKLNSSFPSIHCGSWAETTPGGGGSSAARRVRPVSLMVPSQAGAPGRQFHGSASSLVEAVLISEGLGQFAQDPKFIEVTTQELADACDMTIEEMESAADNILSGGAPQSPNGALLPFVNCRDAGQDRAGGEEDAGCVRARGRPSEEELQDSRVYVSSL
T3 sequence (P22002 whole entry): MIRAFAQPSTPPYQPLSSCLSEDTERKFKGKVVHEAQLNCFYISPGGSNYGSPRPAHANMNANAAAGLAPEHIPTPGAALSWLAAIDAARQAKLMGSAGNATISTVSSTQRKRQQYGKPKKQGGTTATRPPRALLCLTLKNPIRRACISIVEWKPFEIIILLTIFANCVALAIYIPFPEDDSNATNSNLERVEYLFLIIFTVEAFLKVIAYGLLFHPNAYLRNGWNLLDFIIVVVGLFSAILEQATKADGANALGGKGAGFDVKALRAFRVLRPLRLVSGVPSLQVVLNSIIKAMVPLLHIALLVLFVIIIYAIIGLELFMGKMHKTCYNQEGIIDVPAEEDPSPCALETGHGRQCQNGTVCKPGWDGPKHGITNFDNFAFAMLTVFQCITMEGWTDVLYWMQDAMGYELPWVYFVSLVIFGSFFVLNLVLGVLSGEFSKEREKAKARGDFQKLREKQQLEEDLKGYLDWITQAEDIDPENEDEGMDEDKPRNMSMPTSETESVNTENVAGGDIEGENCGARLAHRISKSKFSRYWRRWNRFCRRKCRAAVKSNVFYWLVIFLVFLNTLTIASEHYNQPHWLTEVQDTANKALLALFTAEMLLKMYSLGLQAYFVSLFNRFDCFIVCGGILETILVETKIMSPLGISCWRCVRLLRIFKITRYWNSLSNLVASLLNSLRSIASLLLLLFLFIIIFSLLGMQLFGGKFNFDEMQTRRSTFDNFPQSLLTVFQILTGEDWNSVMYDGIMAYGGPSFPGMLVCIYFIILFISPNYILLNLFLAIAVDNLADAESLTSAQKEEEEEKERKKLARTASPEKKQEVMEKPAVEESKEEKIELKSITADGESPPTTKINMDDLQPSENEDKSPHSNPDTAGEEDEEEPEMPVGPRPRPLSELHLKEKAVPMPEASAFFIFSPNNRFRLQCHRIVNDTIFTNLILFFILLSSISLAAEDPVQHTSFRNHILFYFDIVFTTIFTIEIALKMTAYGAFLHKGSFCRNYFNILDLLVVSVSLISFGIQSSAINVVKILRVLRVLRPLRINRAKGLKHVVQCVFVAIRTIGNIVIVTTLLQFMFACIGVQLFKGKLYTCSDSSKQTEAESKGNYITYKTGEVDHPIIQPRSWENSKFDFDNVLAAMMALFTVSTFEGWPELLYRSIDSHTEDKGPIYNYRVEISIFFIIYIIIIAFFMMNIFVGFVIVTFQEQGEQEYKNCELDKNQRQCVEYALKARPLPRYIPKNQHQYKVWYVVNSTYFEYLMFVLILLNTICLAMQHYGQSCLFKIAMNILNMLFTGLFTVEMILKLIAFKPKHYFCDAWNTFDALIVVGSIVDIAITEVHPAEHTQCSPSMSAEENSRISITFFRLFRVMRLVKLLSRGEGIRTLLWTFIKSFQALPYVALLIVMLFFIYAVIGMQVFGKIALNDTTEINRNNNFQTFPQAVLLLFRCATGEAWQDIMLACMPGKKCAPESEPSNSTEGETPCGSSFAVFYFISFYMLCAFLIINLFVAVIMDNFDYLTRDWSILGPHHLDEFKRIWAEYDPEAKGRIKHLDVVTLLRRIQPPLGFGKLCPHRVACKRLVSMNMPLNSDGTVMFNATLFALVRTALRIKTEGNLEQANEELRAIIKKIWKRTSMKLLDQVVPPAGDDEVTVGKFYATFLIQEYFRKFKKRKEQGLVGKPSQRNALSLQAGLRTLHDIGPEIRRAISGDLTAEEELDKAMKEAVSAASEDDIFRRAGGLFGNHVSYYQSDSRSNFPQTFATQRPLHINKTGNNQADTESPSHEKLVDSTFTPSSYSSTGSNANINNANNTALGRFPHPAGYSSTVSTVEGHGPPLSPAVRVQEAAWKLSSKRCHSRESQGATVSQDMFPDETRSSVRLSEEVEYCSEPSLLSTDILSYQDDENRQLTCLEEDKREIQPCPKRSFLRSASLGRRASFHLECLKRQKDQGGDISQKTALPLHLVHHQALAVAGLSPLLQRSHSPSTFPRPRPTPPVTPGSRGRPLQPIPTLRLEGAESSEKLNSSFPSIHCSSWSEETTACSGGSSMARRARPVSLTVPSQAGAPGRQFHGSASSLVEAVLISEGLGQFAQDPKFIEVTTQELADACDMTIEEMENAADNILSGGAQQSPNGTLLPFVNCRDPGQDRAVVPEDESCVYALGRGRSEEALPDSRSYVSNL

Consider `c1ccc(C2(c3ccccc3)CC2C2=NCCN2)cc1` (stereo unspecified) [CIFENLINE], for which the IC50 – broadly, the concentration that gives 50% inhibition – in [1] came out at 14.4 µM; in test [2], 14 µM; in test [3], 30 µM.

Turning to `CCCC(=O)OCOC(=O)C1=C(C)NC(C)=C(C(=O)OC)C1c1cccc(Cl)c1Cl` (stereo unspecified) [CLEVIDIPINE], the IC50 was 0.0071 µM in [4] and 0.0788 µM in [5].

In the case of `O=C1NC(=O)C(c2ccccc2)(c2ccccc2)N1` [PHENYTOIN], the IC50 in test [6] came to 125 µM.

On to `COCCOC(=O)C1=C(C)NC(C)=C(C(=O)OC/C=C/c2ccccc2)C1c1cccc([N+](=O)[O-])c1` (stereo unspecified) [CILNIDIPINE], for which the figures for the IC50 in [7] and in test [8] were 12.7 µM and 5.3 µM, respectively.

As to `CCOC(=O)C1=C(COCCN)NC(C)=C(C(=O)OC)C1c1ccccc1Cl` (stereo unspecified) [AMLODIPINE], the IC50 in test [9] was 0.57 µM.

Consider `O=c1c(-c2ccc(O)cc2)coc2cc(O)ccc12` [DAIDZEIN], for which the IC50 in [10] came to 12 µM.

On to `Cc1c(C)c2c(c(C)c1O)CCC(C)(COc1ccc(CC3SC(=O)NC3=O)cc1)O2` (stereo unspecified) [TROGLITAZONE], for which the half-inhibitory concentration (IC50) in test [11] stood at 9.5 µM.

With `CCN(CC)CC#CCOC(=O)C(O)(c1ccccc1)C1CCCCC1` (stereo unspecified) [OXYBUTYNIN], in test [12], the IC50 came out at 16.1 µM.

`COc1cc(N)c(Cl)cc1C(=O)NC1CCN(CCCOc2ccc(F)cc2)CC1OC` (stereo unspecified) [CISAPRIDE]: the values for the IC50 in test [13] and in [14] were 46.9 µM and 16 µM, respectively.

In the case of `CNCCCN1c2ccccc2CCc2ccccc21` [DESIPRAMINE], the IC50 in test [15] amounted to 11.7 µM.

Take `CC(C)COCC(CN(Cc1ccccc1)c1ccccc1)N1CCCC1` (stereo unspecified) [BEPRIDIL]: the IC50 in [16] came to 2.6 µM; in [14] it was 0.5 µM.

With `CC[C@H](CO)Nc1nc(NCc2ccccc2)c2ncn(C(C)C)c2n1` [SELICICLIB], the IC50 in test [17] was 23.4 µM.

As to `Fc1ccc(C(OCCN2CCN(CCCc3ccccc3)CC2)c2ccc(F)cc2)cc1` [VANOXERINE], the IC50 in test [18] turned out to be 0.32 µM.

Turning to `CN(C)CCCC1(c2ccc(F)cc2)OCc2cc(C#N)ccc21` (stereo unspecified) [CITALOPRAM], in test [15], the IC50 amounted to 64.5 µM.

As for `C[C@]12CC[C@@H]3c4ccc(O)cc4CC[C@H]3[C@@H]1CC[C@@H]2O` [ESTRADIOL], in test [19], the IC50 was 50 µM.

Take `COC(=O)C1=C(C)NC(C)=C(C(=O)OC2CCCN(Cc3ccccc3)C2)C1c1cccc([N+](=O)[O-])c1` (stereo unspecified) [BENIDIPINE]: the IC50 in test [20] amounted to 4.9 µM; in test [8], 13.8 µM.

As for `Cc1ccc(O)c([C@H](CCN(C(C)C)C(C)C)c2ccccc2)c1` [TOLTERODINE], the IC50 in test [2] is 0.143 µM.

`CCCCC/C=C\C/C=C\C/C=C\C/C=C\CCCC(=O)O` [ARACHIDONIC ACID]: the figures for the IC50 in test [21] and in test [22] were 5.8 µM and 8.5 µM, respectively.

For the molecule `C=CCN1CCN(CC(C)(C)COC(=O)C2=C(C)NC(C)=C(C(=O)OC)C2c2cccc([N+](=O)[O-])c2)CC1` (stereo unspecified) [IGANIDIPINE], in test [3], the IC50 is 0.009 µM.

Turning to `COc1ccc(C(C)=O)c(O)c1` [PAEONOL], the IC50 in test [23] came to 561 µM.

With `Cc1cccc(CCN2CCC(C(=O)c3ccc(NS(C)(=O)=O)cc3)CC2)n1`, the IC50 in [14] worked out at 441 µM.

Take `COC(=O)C1=C(C)NC(C)=C(C(=O)OCC(C)C)C1c1ccccc1[N+](=O)[O-]` (stereo unspecified) [NISOLDIPINE]: the IC50 in test [12] amounted to 0.08 µM; in [24], 0.73 µM.
